These results are taken from patent publication US12180252B2, “Peptide derived from PEP27 peptide and uses thereof” (priority 2021, dated 2024).

The test system of test [1] is TNF-α, IL-1β, IL-6, iNOS and COX-2. The experiment in a line: Pro-inflammatory cytokine gene expression in abscess tissue, qPCR. The format is in vivo, mouse. Conditions: mRNA relative to β-actin.
Protocol: For mice not infected with bacteria, infected mice, and mice subjected to treatment using PEP27-2 alone, ceftriaxone alone or a combination thereof after infection, the expression of inflammatory genes in the mice were measured thus to verify the efficacy of each of PEP27-2 single treatment and combination treatment with antibiotics.
Specifically, total RNA was isolated from wound tissues using Trizol reagent. From the prepared total RNA, cDNA was synthesized using a cDNA synthesis kit. qPCR was implemented using qPCR 2× premix (SYBR Green), followed by determining expression amounts of TNF-α, IL-1β, IL-6, iNOS and COX-2 among inflammatory genes. Expression levels were quantified based on β-actin, and the PCR process was conducted as followed: at 50° C. for 2 minutes and at 95° C. for 10 minutes; 95° C. for 15 seconds, 60° C. for 1 minute, 40 cycles; 95° C. for 15 seconds, 60° C. for 1 minute, 95° C. for 30 seconds, and 60° C. for 15 seconds. The gene expression was calculated after standardization to β-actin level through ΔΔCt method.
For test [2], the system named is Staphylococcus aureus MW2. The format is in vivo, BALB/c mouse. Conditions: for reduction of the number of bacteria in abscess tissue: 0.2 mg/kg alone, injected 2 hours after infection. As for the experimental part:
The efficacy of PEP27-2, which is the peptide having the most excellent antimicrobial activity among the peptides prepared by the method of above 1 was evaluated in vivo using a mouse model.
Specifically, the epidermis on the back side (dorsal side) of 6-7 week old BALB/c mouse was infected with Staphylococcus aureus MW2 having GFP gene inserted therein (S. aureus MW2-GFP, 1×10^9 CFU/10 μl PBS). After 2 hours form infection, PEP27-2 alone (0.2 mg/kg, 50 μl), ceftriaxone alone (0.2 mg/kg, 50 μl) or a combination of the peptide and the antibiotic (0.05 mg/kg PEP27-2+0.1 mg/kg ceftriaxone, 50 μl) was injected. Further, the control mice were injected with the same amount of PBS ([…]) without peptide. On 1st, 2nd, 3rd, 4th, 5th and 7th days after treatment, the shape of abscess was photographed, and surrounding tissues as well as the abscess were gathered. The abscess tissue was homogenized in 500 μl of sterile PBS using a tissue grinder. A serial diluted solution of the homogenate was spread on an agar plate and cultured for 24 hours in order to quantify the Staphylococcus aureus MW2 strain.

The next test concerns S. aureus USA300. As to the kind of experiment: microbe, parasite or virus in culture. Conditions: Staphylococcus aureus, USA300, 18 h, read-out: Minimal inhibitory concentration. As for the experimental part: (§1) In order to evaluate the antimicrobial activity of the peptides prepared by the method of above 1, a minimal inhibitory concentration (MIC) value as the minimum concentration of a peptide, in which cells are not divided, was measured.
(§2) Specifically, the strains shown in Table 3 below were purchased, cultured in a medium having a constitutional composition suitable for each strain to a mid-log phase, and then diluted to a concentration of 2×10^4 cells/100 μl to prepare the product on a micro-titration plate (Nunc, USA). Then, PEP27, PEP27-1, PEP27-2 or PEP27-5 peptide synthesized in the above 1 was added to each well by serial dilution ½ times, followed by incubation at 37° C. for 18 hours.
(§3) Specifically, subject strains were prepared by the method of above 2, and were treated with the antibiotics, that is, meropenem, ceftazidime, ceftriaxone or vancomycin, respectively, followed by determining MICs of the antibiotics.

A further test has as its system S. aureus CCARM3518. As to the kind of experiment: microbe, parasite or virus in culture. As to conditions: Staphylococcus aureus, CCARM3518, 18 h, read-out: Minimal inhibitory concentration. As to the method:
as §1, §2, §3

The subject of the next test is S. aureus ATCC25923. As to the kind of experiment: microbe, parasite or virus in culture. As to conditions: Staphylococcus aureus, ATCC25923, 18 h, read-out: Minimal inhibitory concentration. As to the method:
as §1, §2, §3

In another test the test system is S. aureus CCARM3090. The experiment in a line: microbe, parasite or virus in culture. As to conditions: Staphylococcus aureus, CCARM3090, 18 h, read-out: Minimal inhibitory concentration. As for the experimental part: as §1, §2, §3
Another test relates to P. aeruginosa ATCC27853. As to the kind of experiment: microbe, parasite or virus in culture. Conditions: Pseudomonas aeruginosa, ATCC27853, 18 h, read-out: Minimal inhibitory concentration. As for the experimental part:
as §1, §2, §3

In a further test the test system is P. aeruginosa 4007. The experiment in a line: microbe, parasite or virus in culture. Conditions: Pseudomonas aeruginosa, 4007, 18 h, read-out: Minimal inhibitory concentration. As for the experimental part:
as §1, §2, §3

A further test has as its system P. aeruginosa 4891. The experiment in a line: microbe, parasite or virus in culture. As to conditions: Pseudomonas aeruginosa, 4891, 18 h, read-out: Minimal inhibitory concentration. As to the method:
as §1, §2, §3

In a further test the test system is S. aureus ATCC29213. The experiment in a line: microbe, parasite or virus in culture. As to conditions: Staphylococcus aureus, ATCC29213, 18 h, read-out: Minimal inhibitory concentration. As for the experimental part: as §1, §2, §3
The next test concerns S. aureus CCARM3089. The experiment in a line: microbe, parasite or virus in culture. As to conditions: Staphylococcus aureus, CCARM3089, 18 h, read-out: Minimal inhibitory concentration. As for the experimental part: as §1, §2, §3
Another test relates to P. aeruginosa ATCC15692. The experiment in a line: microbe, parasite or virus in culture. Conditions: Pseudomonas aeruginosa, ATCC15692, 18 h, read-out: Minimal inhibitory concentration. As for the experimental part: as §1, §2, §3
In the next test the test system is S. aureus MW2. As to the kind of experiment: microbe, parasite or virus in culture. Conditions: Staphylococcus aureus, MW2, 18 h, read-out: Minimal inhibitory concentration. As for the experimental part:
as §1, §2, §3

For test [3], the system named is Staphylococcus aureus MW2-GFP. The format is in vivo, mouse. As to conditions: up to 3 days after infection with 1×10^9 CFU. As for the experimental part: For real-time tracking the progress of infection with regard to the peptide that has the most excellent antimicrobial activity among the peptides prepared by the method of above 1, fluorescence (GFP)-labeled Staphylococcus aureus MW2 (Staphylococcus aureus MW2-GFP) was used. Fluorescence images were taken from the beginning of infection to 6 hours, 1 day, 2 days and 3 days by means of an FOBI fluorescence imaging system (Neo Science, Suwon, Korea), followed by analysis thereof using live image software.

Test [4] relates to Staphylococcus aureus MW2. As to the kind of experiment: Hematoxylin and eosin staining of abscess tissue. The format is in vivo, mouse. As to conditions: tissue on day 7, treated 2 hours after infection. The source says: Among tissues on the abscess portion and infected portion gathered in the above 13, the tissue on day 7 was fixed with 4% buffered formalin. The infection portion or abscess portion fixed with formalin was embedded in paraffin, while staining a fragment of the cross-section with hematoxylin and eosin.

≈ marks a conversion by molar mass, not a printed value. Read-outs that look alike come from different tables or passages of the source.

Take `CO/N=C(\C(=O)N[C@@H]1C(=O)N2C(C(=O)O)=C(CSc3nc(=O)c(=O)[nH]n3C)CS[C@H]12)c1csc(N)n1` [Ceftriaxone, ceftriaxone]: in test [1], the “expression of inflammatory cytokines (TNF-α, IL-1β, IL-6, iNOS, COX-2)” value is listed as “suppressed”. Further, the “size of formed abscess” value in test [2] (compared with infected group injected only with PBS, up to day 7) is given as “smaller than the experimental group in which only PBS was injected”. The “reduction of the number of bacteria in abscess tissue” value in [2] (day 3) is recorded as 46.0%; in [2] (day 7), 61.5%. In addition, the MIC came to 16 µM (≈ 8.87 µg/mL) in the test on S. aureus USA300; 256 µM (≈ 142 µg/mL) with S. aureus CCARM3518; 8 µM (≈ 4.44 µg/mL) in the test with S. aureus ATCC25923; 512 µM (≈ 284 µg/mL) in the test on S. aureus CCARM3090; 8 µM (≈ 4.44 µg/mL) in the test on P. aeruginosa ATCC27853; 16 µM (≈ 8.87 µg/mL) in the test with P. aeruginosa 4007. Also, the MIC with P. aeruginosa 4891 is 64 µM (≈ 35.5 µg/mL); in the test with S. aureus ATCC29213 it was 4 µM (≈ 2.22 µg/mL); in the test on S. aureus CCARM3089, 512 µM (≈ 284 µg/mL); with P. aeruginosa ATCC15692 it was 16 µM (≈ 8.87 µg/mL); in the test on S. aureus MW2 it was 32 µM (≈ 17.7 µg/mL). In test [3], the “fluorescence signal of S. aureus MW2-GFP at the abscess” value is on record as “not reduced”. Also, the “number of visible scabs formed on the skin surface and number of bacteria” value in test [4] is “markedly reduced”.
